Measured values: publication PMC9655874, “Analysis of Volatile Secondary Metabolites in Ocimum basilicum Cell Suspensions: Inhibition, In Silico Molecular Docking, and an ADMET Analysis against Proteolytic Enzymes of Rhynchophorus ferrugineus” (Plants, 2022)
≈ marks a conversion by molar mass, not a printed value.

Key:
R. ferrugineus adults = assay: whole plant or invertebrate; type: in vivo; conditions: Rhynchophorus ferrugineus, read-out: LC50 (µg/mL) 95% CF
Description: (§1) Cells were suspended in the methanolic extract at serially increasing concentrations for 40 days. To dilute the compounds, TritonX-100 (0.1%) was added to acetone after the chemicals were dissolved. Adults or larvae of R. ferrugineus were purchased. They were then cultured using long lengths of sugar cane stem. The extracts’ anti-larvae action was assessed by applying topically to larvae and keeping them at 4–5 °C for 5 min. Utilizing a manually controlled micro-applicator, each larva had extract injected into its dorsum in three separate 10 µL doses using a 50-ll micro-syringe from Hertfordshire, UK’s Burkard Manufacturing Co., Ltd. (MS-N50; Shizuoka, Japan’s Ito Corp.). Five larvae in a box with three replications were fed on portions of long sugarcane stem measuring 10 cm. […] The sugarcane stem’s ten-centimeter-long portions cut into equal longitudinal halves were used to measure the antifeedant activity against adults. Long sections of sugarcane stem with a surface area of approximately 32.2 cm^2 were dried in air at room temperature, assuming a dipping time of 10 s and an initial serial concentration of (10 mL). Each treated object remained in a plastic container. Each box included an additional pair (male and female). Each therapy was administered ten times. In total, 24-, 48-, 72-, and 96-h feeding observations were assessed.
(§2) Statistics and probit analysis were performed using SPSS 25.0, as mentioned by Finney. To sum up, all numerical predictions of toxicity variables and findings were presented as the mean ± SE. We regressed mortality and translated the resulting dosage to an LC50 value (µg/mL). […] Enzyme activity data were analyzed using an ANOVA. Means were separated using the SNK (Student–Newman–Keuls) test, and deviations at the p ˂ 0.05 level were considered noteworthy.

[1] = tested on: R. ferrugineus 4th larvae; assay: Topical application (contact insecticide) to fourth instar larvae; type: in vivo, Rhynchophorus ferrugineus
Description: as §1, §2

[2] = target: elastase of R. ferrugineus midgut; assay: Serine proteinase specific activity, elastase (in vitro); type: biochemical, Rhynchophorus ferrugineus; conditions: 4th instar midgut homogenate
[3] = target: cysteine protease of R. ferrugineus midgut; assay: Cysteine proteinase activity (in vitro); type: biochemical, Rhynchophorus ferrugineus; conditions: 4th instar midgut homogenate
Description: (§3) Utilizing the substrate N-benzoyl-Phe-Val-Arg-p-nitroanilide hydrochloride and certain modifications, the cysteine proteinases of R. ferrugineus homogenate from the fourth midgut instar was tested for activity. Ten larvae of the fourth midgut were carefully taken out, dissected, and periodically washed with 0.9% (w/v) NaCl solution, assay buffer containing 50 mM HEPS, 5 mM DTT, and 0.1% Triton X-100 (v/v) (pH 8.0, 500 µL) was used to homogenize the samples. The homogenates were spun using a cooling Sigma 3k30 centrifuge for 30 min at 5000 rpm. […] Before introducing 100 µL of the substrate, 10 µL of the supernatant was incubated in assay buffer (60 µL, pH = 8) at 37 °C for 30 min. Enzyme samples in 10 µL were incubated for 10 min with iodoacetic acid before the addition of the substrate. […] The absorbance at 520 nm was measured after spinning the reaction for 6 min at 5000 rpm. The activity in the midgut was assayed at OD520.60 min^−1 mg^−1 of protein with an ELISA rapid reader.

[4] = tested on: elastase of R. ferrugineus midgut; assay: Elastase activity in midgut of treated larvae (in vivo); set-up: species or system Rhynchophorus ferrugineus; conditions: larvae treated 24 h, midgut preparation
[5] = tested on: cysteine protease of R. ferrugineus midgut; assay: Cysteine protease activity in midgut of treated larvae (in vivo); set-up: species or system Rhynchophorus ferrugineus; conditions: larvae treated 24 h, midgut preparation
Description: as §3

[6] = tested on: trypsin proteinase of R. ferrugineus midgut; assay: Trypsin activity in midgut of treated larvae (in vivo); conditions: larvae treated 24 h, midgut preparation
Description: (§4) We used a serine protease assay buffer and a modified version of the fast microplate method to analyze the serine proteinase’s specific activity in mixtures (150 µL) [26]. […] The sample (10 µL) was diluted using an assay buffer to 50 µL to determine the presence of trypsin proteinase, chymotrypsin proteinase, and elastase. Assay buffer was used to dilute stock substrates of BAρNA (100 mg/mL DMSO), both SAAPFρNA and SAAPLρNA (100 mg/mL DMF), to 1.0 mg/mL. To halt the reaction after 15 min of incubation at 37 °C, 50 µL of acetic acid (30%, v/v) was added. The intensity of the activity was measured using a 405 nm ELISA plate reader. A denaturation enzyme was used in place of an active enzyme in the experiment mixture. For three substrates (SAAPLρNA, BAρNA, and SAAPFρNA), activity levels of certain proteinases were assessed as OD mg^−1 protein min^−1.
(§5) An experiment that was set up free of potential inhibitors served as a control. An ELISA plate fast reader measured the enzymes’ absorption at various wavelengths. For each inhibitor, the control enzyme’s percentage activity was assessed for each enzyme. Four instars midgut larvae were treated with previous concentrations of extracts or compounds, assessed as previously mentioned, to measure the protease activity in vivo. Larvae were subjected to extract- and compound-treated leaf discs for 24 h.

[7] = target: trypsin proteinase of R. ferrugineus midgut; assay: Serine proteinase specific activity, trypsin (in vitro); conditions: 4th instar midgut homogenate
Description: as §4, §5

[8] = tested on: total proteases of R. ferrugineus midgut; assay: Total protease activity in midgut of treated larvae (in vivo); conditions: larvae treated 24 h, midgut preparation
Description: (§6) The homogenate of R. ferrugineus 4th midgut instar larvae (lab strain) was assayed for total proteolytic enzyme activity using azocasein, as Darrag et al. [26], with modifications. Ten 4th midgut larval homogenates were carefully removed, incised, and then rinsed in a solution containing 0.9% NaCl before even being homogenized in a buffer (500 µL) containing 5 mM dithiothreitol (DTT), 0.1% (v/v) Triton X-100, and 50 mM N-2-hydroxyethyl piperazine-N′-2-ethane sulphonic acid (HEPS), and 8.0 pH. It was spun in a centrifuge (Sigma 3k30), and the remaining homogenates were from a preliminary phase for 30 min at 5000 rpm. Using the supernatants, the protein concentration and proteolytic enzyme activity were determined. […] Before each reaction experiment, 40-day-old methanolic extract of cell suspension, pure chemicals, and 10 μL of enzyme specimens were incubated for 10 min. The addition of the substrate initiated the reaction, which was allowed for 20 min in the case of leupeptin before being terminated 180 min later by adding 300 µL of cold tri-chloroacetic acid (TCA) (10%, v/v). Twenty minutes were spent centrifuging the mixture at 5000 rpm (Sigma 3k30). Overall, 10 µL of NaOH (10 N) was added to the supernatant, and the absorbance was measured using an ELISA plate reader at 450 nm to quantify the enzymes’ specific activity as OD450/mg protein/h.
as §5

[9] = target: metalloprotease of R. ferrugineus midgut; assay: Metalloproteinase specific activity, CEGR substrate (in vitro); conditions: 4th instar midgut homogenate
Description: (§7) The ten midgut larvae from the fourth stage were neatly eliminated, dissected, and repeatedly washed with 0.9% NaCl solution. A 500 µL protease test solution, including 50 mM HEPS, 0.1% Triton X-100, and 5 mM DTT (pH 8.0), was utilized to homogenize the midgut instar. The homogenates were then centrifuged employing a Sigma 3k30 (cooling centrifuge) at 5000 rpm for 30 min to evaluate the supernatant’s enzyme activity and protein content. Before introducing CEGR (125 µL, 2% (w/v)), each experiment’s supernatant (10 µL) was incubated in an assay buffer (60 µL) at 37 °C for 20 min (pH 8). During a 10 min incubation period without a substrate, 10 µL enzyme samples were tested (20 min. for EDTA, EGTA, 1.10, Phenanthroline). After 180 min at 37 °C, 300 µL of cold TCA, 10% (v/v), was used to terminate the reaction. For the next 20 min, the mixture was spun (5000 rpm, Sigma 3K30). The absorbance was measured at 450 nm after mixing the supernatant with hydroxide solution (10 µL, 10 N) using an ELISA reader. An enzyme-free assay combination was utilized as a blank, and particular activity was evaluated utilizing the OD493 mg^−1 protein min^−1 and an enzyme-free blank specimen.
as §5

[10] = tested on: metalloprotease of R. ferrugineus midgut; assay: Metalloprotease activity in midgut of treated larvae (in vivo); conditions: larvae treated 24 h, midgut preparation
Description: as §7, §5

[11] = target: total proteases of R. ferrugineus midgut; assay: Total proteolytic enzyme activity of 4th instar midgut homogenate, azocasein (in vitro)
Description: as §6, §5

Structure (SMILES): C=C(C)C1CCC(C)(O)CC1 (stereo not drawn) [β-terpineol]
- LC50 (R. ferrugineus adults): 3920 µg/mL (≈ 25400 µM)
- LD50 (µg/Larvae) 95% CF ([1]; 4th larvae, topical, 95% confidence limits in brackets): 42.6 (39.7–44.3) µg/Larvae
- LD50 ([1]; larvae, topical application): 42.6 µg/larva
- IC50 elastase (in vitro) [2]: 112.6 mg/L (≈ 730 µM)
- IC50 cysteine protease (in vitro) [3]: 287.3 mg/L (≈ 1860 µM)
- IC50 elastase (in vivo) [4]: 239.4 mg/L (≈ 1550 µM)
- IC50 cysteine protease (in vivo) [5]: 427.4 mg/L (≈ 2770 µM)
- IC50 trypsin proteinase (in vivo) [6]: 237.1 mg/L (≈ 1540 µM)
- IC50 trypsin proteinase (in vitro) [7]: 168.4 mg/L (≈ 1090 µM)
- IC50 total proteases (in vivo) [8]: 379.5 mg/L (≈ 2460 µM)
- IC50 metalloprotease (in vitro) [9]: 543.5 mg/L (≈ 3520 µM)
- IC50 metalloprotease (in vivo) [10]: 1175.2 mg/L (≈ 7620 µM)
- IC50 total proteases (in vitro) [11]: 281.7 mg/L (≈ 1830 µM)
